Patent US20080293700A1, “Compositions and Methods Relating to Novel Compounds and Targets Thereof” (priority 2004, published 2008)
Read-outs that look alike come from different tables or passages of the source.

How the values were obtained:
[1] = target: T1, ATP hydrolytic activity of sub-mitochondrial particles (SMPs), mitochondrial F1Fo-ATPase (Bos taurus, UniProt P13621); test: NADH-coupled kinetics assay of ATP hydrolysis by sub-mitochondrial particles; assay type: biochemical, bovine; conditions: for Ki: non-competitive (mixed) model; for Km / Vmax: three-dimensional fit
T1 construct: from tissue; host or cells: sub-mitochondrial particles (SMPs)
Description: The mechanism of inhibition for ATP hydrolysis induced by Bz-423 and derivatives of Bz-423 was assayed using an NADH-coupled assay. The ATP hydrolytic activity of the sub-mitochondrial particles (hereinafter SMPs) was measured by coupling the production of ADP to the oxidation of NADH via the pyruvate kinase and lactate dehydrogenase reaction. Briefly, ATP hydrolysis SMPs (0.8 mg; 7.14 μg/well) were added to hydrolysis buffer (100 mM Tris-HCl, pH 8.0 at 25° C., 4 mM MgCl2, […], 0.2 mM EDTA) and vortexed. 125 μL of this suspension was added to each well of a 96-well plate containing 50× drug or DMSO vehicle control (1% DMSO, final). The 96-well plate was then placed at 30° C. in a Molecular Devices Versamax tunable microplate reader and allowed to incubate for 5 min. During this 5 min, a substrate-coupling mixture was prepared (containing X mM ATP, 0.2 mM NADH, 1 mM phosphoenolpyruvate (PEP), 2 U/mL pyruvate kinase (PK), and 2 U/mL lactate dehydrogenase (LDH) in hydrolysis buffer). The rate of hydrolysis was assayed over a range of ATP concentrations (0.1-4.0 mM) at each [Bz]. 125 μL of the substrate-coupling mixture was added to each well, and the rate of NADH oxidation was monitored for 10 min at 340 nm, 30° C. The measured decrease in absorbance over time (in OD/min) was converted to μmol ATP hydrolyzed/min/mg SMP (ε=6220). The velocity data was plotted versus [ATP] for each concentration of [Bz] (e.g., 1-8 μM) (see, e.g., FIG. 1) and then fit to the Michaelis-Menten equation:
m1*m0/(1+m0/m2) • where m1=Vmax/Km and m2=Km The apparent kinetic parameters for each [Bz] were obtained from these curve fits to generate secondary plots of [Bz] versus Vmax, [Bz] versus Km, and [Bz] versus Vmax/Km (see, e.g., FIG. 2). The o-tert-Butyl derivative, shown below,
To obtain Ki values and confirm that an uncompetitive model of inhibition was the best fit for the data, three-dimensional fits of the velocity, [ATP], and [Bz] were performed to solve for Vmax, Km, Ki, and Ki* [where Ki indicates Bz binding to the ATPase with the third catalytic site empty (mixed-type inhibition only), and Ki* indicates binding when all three sites have substrate bound (uncompetitive and mixed-type inhibition)]. The following equations were used:
Vo=Vmax[S]/((1+[I]/Ki)Km+[S])
Vo=Vmax[S]/((1+[I]/Ki*) [S]+Km)
Vo=Vmax[S]/((1+[I]/Ki)Km+(1+[I]Ki*)[S])

F1Fo-ATPase = conditions: cited from earlier work
[2] = binding with third catalytic site empty
[3] = non-competitive (mixed) inhibition model

With `CN1C(=O)C(Cc2ccc3ccccc3c2)N=C(c2ccc(O)cc2)c2cc(Cl)ccc21` (centres unmarked) [Bz-423] the “mechanism of inhibition of ATP hydrolysis” value [1] was “uncompetitive”, the Ki ([1]; binding when all three sites have substrate bound, read-out: Ki*) was 18.9 ± 6.3 µM and the Ki [1, 2] was “no fit”. It also gave a Km ([1]; competitive inhibition model) of 400 ± 100 µM, a Vmax ([1]; competitive inhibition model) of 2.62 ± 0.9 and a Vmax [1, 3] of 3.37 ± 1.4. For the same molecule, the Km ([1]; uncompetitive inhibition model) was 680 ± 100 µM and the Vmax ([1]; uncompetitive inhibition model) was 3.34 ± 1.3.
In the case of `CC[C@H]1/C=C/C=C/C[C@@H](C)[C@H](O)[C@@](C)(O)C(=O)[C@@H](C)[C@H](O)[C@@H](C)C(=O)[C@@H](C)[C@H](O)[C@@H](C)/C=C/C(=O)O[C@@H]2[C@H](C)[C@H](CC1)O[C@]1(CC[C@H](C)[C@H](C[C@@H](C)O)O1)[C@H]2C` [oligomycin], the IC50 (F1Fo-ATPase) is listed as 0.01 µM and the “mode of inhibition of the F1Fo-ATPase” value (F1Fo-ATPase) is listed as “non-competitive”.
In the case of `COC[C@@H](C[C@H]1O[C@@](O)([C@H](O)[C@@H]2C[C@H](OC)[C@@H](O)CC/C=C(C)/C=C/[C@@H](O[C@@H]3O[C@@H](C)[C@H](OC)[C@@H](O)[C@@H]3O)[C@H](C)/C=C(C)/C=C(C)/C=C(\C)C(=O)O2)[C@H](C)[C@@H](O)[C@H]1C)OC1C[C@](C)(O)[C@@H](O[C@H]2C[C@@H](OC)[C@H](O)[C@@H](C)O2)[C@H](C)O1` (some centres unmarked) [apoptolidin], the “mode of inhibition of the F1Fo-ATPase” value (F1Fo-ATPase) is given as “non-competitive”.
With `CN1C(=O)C(Cc2ccc(OC(C)(C)C)cc2)N=C(c2ccc(O)cc2)c2cc(Cl)ccc21` (centres unmarked) [o-tert-Butyl] the “mechanism of inhibition of ATP hydrolysis” value [1] was “uncompetitive”, the Ki [1, 2] was “no fit” and the “effect on apparent Km” value ([1]; secondary plot [Bz] versus Km, [Bz] 1-8 μM) was “decreased”. For the same molecule, the “effect on apparent Vmax” value ([1]; secondary plot [Bz] versus Vmax, [Bz] 1-8 μM) was “decreased”, the Km ([1]; competitive inhibition model) was 250 ± 20 µM and the Vmax ([1]; competitive inhibition model) was 1.25 ± .01. For the same molecule, the Vmax [1, 3] was 1.53 ± .03, the Km ([1]; uncompetitive inhibition model) was 390 ± 300 µM and the Vmax ([1]; uncompetitive inhibition model) was 1.53 ± 0.03.
